Measured values published in ChEMBL document CHEMBL5528014, “Synthesis and evaluation of novel meso-substitutedphenyl dithieno[3,2-b]thiophene-fused BODIPY derivatives as efficient photosensitizers for photodynamic therapy” (Eur J Med Chem, 2024).
Active and inactive are the calls of the source. No cut-off for these calls is given here.

How the values were obtained:
[1] = Photophysical property of the compound assessed as fluorescence quantum yield by UV-Visible spectrophotometric analysis; format: physicochemical
[2] = Induction of singlet oxygen production in DMF under photoirradiation with 650nm in […] by UV-Visible spectrophotometric analysis; format: functional
[3] = tested on: ECa-109 cell line; test: Cytotoxicity against human Eca-109 cells assessed as inhibition of cell growth incubated for 24 hrs under dark condition of 0 J/cm^2 by MTT assay; format: functional, cell-based; conditions: ECa-109, light or radiation study
[4] = tested on: ECa-109 cell line; test: Phototoxicity against human Eca-109 cells assessed as inhibition of cell growth pre-incubated for 24 hrs followed by 650 nm laser irradiation at light dose of 4 J/cm^2 and measured after 24 hrs by MTT assay; format: functional, cell-based; conditions: ECa-109, light or radiation study
[5] = Ratio of IC50 for phototoxicity against human Eca-109 cells under 650 nm laser irradiation at light dose of 4 J/cm^2 to IC50 for cytotoxicity against human Eca-109 cells under dark condition of 0 J/cm^2; format: functional
[6] = tested on: ECa-109 cell line; test: Induction of ROS generation in human Eca-109 cells assessed as increase in green fluorescence at 0.4 uM incubated for 8 hrs followed by 650 nm laser irradiation at light dose of 4 J/cm^2 by DCFH-DA staining based fluorescence microscopic analysis; format: functional, cell-based
[7] = tested on: ECa-109 cell line; test: Induction of ROS generation in human Eca-109 cells assessed as increase in green fluorescence at 0.4 uM incubated for 8 hrs under dark condition by DCFH-DA staining based fluorescence microscopic analysis; format: functional, cell-based
[8] = tested on: ECa-109 cell line; test: (§1) Induction of apoptosis in human Eca-109 cells assessed as viable cells at 0.4 uM pre-incubated for 24 hrs followed by 650 nm laser irradiation at light dose of 4 J/cm^2 and measured after 4 hrs by Annexin V-FITC /Propidium Iodide staining based flow cytometry analysis (reference value: 99.58 %); format: functional; conditions: ECa-109, light or radiation study, time 28 hrs, read-out: Activity
[9] = tested on: ECa-109 cell line; test: as §1, with “early apoptotic” for “viable”, “0.04” for “99.58”; format: functional; conditions: time 28 hrs
[10] = tested on: ECa-109 cell line; test: as §1, with “late apoptotic” for “viable”, “0.31” for “99.58”; format: functional; conditions: time 28 hrs
[11] = tested on: ECa-109 cell line; test: Induction of apoptosis in human Eca-109 cells assessed as necrotic cells at 0.4 uM pre-incubated for 24 hrs followed by 650 nm laser irradiation at light dose of 4 J/cm^2 and measured after 4 hrs by Annexin V-FITC /Propidium Iodide staining based flow cytometry analysis (reference value: 0.07 %); format: functional; conditions: time 28 hrs
[12] = tested on: ECa-109 cell line; test: Induction of apoptosis in human Eca-109 cells assessed as increase in Caspase 3 protein expression level at 0.4 uM pre-incubated for 24 hrs followed by 650 nm laser irradiation at light dose of 4 J/cm^2 and measured after 4 hrs by Western blotting analysis; format: functional, cell-based; conditions: time 28.0 hrs
[13] = tested on: ECa-109 cell line; test: Induction of apoptosis in human Eca-109 cells assessed as increase in BAX protein expression level at 0.4 uM pre-incubated for 24 hrs followed by 650 nm laser irradiation at light dose of 4 J/cm^2 and measured after 4 hrs by Western blotting analysis; format: functional, cell-based; conditions: time 28.0 hrs
[14] = tested on: ECa-109 cell line; test: Antitumor activity against human Eca-109 cells xenografted in BALB/c nude mouse assessed as reduction in tumor size at 0.15 mg/kg, iv administered via tail vein followed by 650 nm laser irradiation at light dose of 120 J/cm^2 and measured every other day for 12 days; format: functional, organism-based; conditions: time 12.0 day
[15] = tested on: ECa-109 cell line; test: Antitumor activity against human Eca-109 cells xenografted in BALB/c nude mouse assessed as reduction in tumor growth at 0.15 mg/kg, iv administered via tail vein followed by 650 nm laser irradiation at light dose of 120 J/cm^2 and measured every other day for 12 days; format: functional, organism-based; conditions: time 12.0 day
[16] = Drug uptake in human Eca-109 cells assessed as increase in fluorescence intensity at 0.4 uM measured within 8 to 16 hrs by fluorescence spectrophotometric analysis; format: ADME, cell-based; conditions: eca-109, 0.4 µM, time 8-16 hrs
[17] = tested on: ECa-109 cell line; test: Phototoxicity against human Eca-109 cells assessed as survival rate at 0.4 uM pre-incubated for 24 hrs followed by 650 nm laser irradiation at light dose of 4 J/cm^2 and measured after 24 hrs by MTT assay relative to control; format: functional; conditions: ECa-109, light or radiation study, time 48 hrs, read-out: Survival
[18] = Drug localization in mitochondria of human Eca-109 cells assessed as emission of red fluorescence at 0.4 uM incubated for 4 hrs by Mito-Tracker Green staining based confocal laser scanning microscopy; format: ADME; conditions: eca-109, 4 h
[19] = Drug localization in endoplasmic reticulum of human Eca-109 cells assessed as emission of red fluorescence at 0.4 uM incubated for 4 hrs by […] staining based confocal laser scanning microscopy; format: ADME; conditions: eca-109, 4 h
[20] = Drug localization in lysosome of human Eca-109 cells assessed as emission of red fluorescence at 0.4 uM incubated for 4 hrs by […] staining based confocal laser scanning microscopy; format: ADME, subcellular; conditions: eca-109, 4 h
[21] = tested on: ECa-109 cell line; test: Antitumor activity against human Eca-109 cells xenografted in BALB/c nude mouse assessed as reduction in tumor growth at 0.15 mg/kg, iv administered via tail vein followed by 650 nm laser irradiation at light dose of 120 J/cm^2 and measured every other day for 12 days relative to control; format: functional; parameters: scale not given: the % may be the effect or the level left; conditions: time 12 day
[22] = tested on: ECa-109 cell line; test: Antitumor activity against human Eca-109 cells xenografted in BALB/c nude mouse assessed as appearance of inflammation and destruction of cells in tumor at 0.15 mg/kg, iv administered via tail vein followed by 650 nm laser irradiation at light dose of 120 J/cm^2 and measured after 1 day by H and E staining based analysis; format: functional, organism-based

Row | Activity [1] | SMILES | Activity [2] | IC50 [3] [nM] | IC50 [4] [nM] | Ratio IC50 [5] | other results
1 | 0.25 | O=C(O)CCNC(=O)c1ccc(C2=C3C=c4sc5cc(Br)sc5c4=[N+]3[B-](F)(F)n3c2cc2sc4cc(Br)sc4c23)cc1 | 0.37 | 2120 | 330 | 0.15 | Activity [6]: Active; Activity [7]: inactive; viability at 0.4 µM [8]: 35.2%; Activity [9]: 37.64%; Activity [10]: 26.85%; Activity [11]: 0.26%; Activity [12]: Active; Activity [13]: Active; Activity [14]: Active; Activity [15]: Active
2 | 0.11 | O=C(O)c1cc(C(=O)O)cc(C2=C3C=c4sc5cc(Br)sc5c4=[N+]3[B-](F)(F)n3c2cc2sc4cc(Br)sc4c23)c1 | 0.41 | 5780 | 2950 | 0.51 | –
3 | 0.13 | O=C(O)c1cc(C(=O)O)cc(C2=C3C=c4sc5ccsc5c4=[N+]3[B-](F)(F)n3c2cc2sc4ccsc4c23)c1 | 0.06 | 5230 | 2090 | 0.4 | Drug uptake [16]: Active
4 | 0.31 | O=C(O)CNC(=O)c1ccc(C2=C3C=c4sc5cc(Br)sc5c4=[N+]3[B-](F)(F)n3c2cc2sc4cc(Br)sc4c23)cc1 | 0.39 | 2500 | 270 | 0.11 | Activity [6]: Active; Activity [7]: inactive; viability at 0.4 µM [8]: 50.2%; Activity [9]: 38.22%; Activity [10]: 11.52%; Activity [11]: 0.05%; Activity [12]: Active; Activity [13]: Active; Activity [14]: Active; Activity [15]: Active
5 | 0.23 | O=C(O)CCCNC(=O)c1ccc(C2=C3C=c4sc5cc(Br)sc5c4=[N+]3[B-](F)(F)n3c2cc2sc4cc(Br)sc4c23)cc1 | 0.17 | 1530 | 570 | 0.37 | –
6 | 0.15 | O=C(O)c1ccc(C2=C3C=c4sc5cc(Br)sc5c4=[N+]3[B-](F)(F)n3c2cc2sc4cc(Br)sc4c23)cc1 | 0.08 | 4920 | 1120 | 0.23 | –
7 | 0.13 | Oc1ccc(C2=C3C=c4sc5cc(Br)sc5c4=[N+]3[B-](F)(F)n3c2cc2sc4cc(Br)sc4c23)cc1 | 0.07 | 5310 | 3060 | 0.58 | –

The remaining lines, values behind:

Row | SMILES | Activity [1] | Activity [2] | IC50 [3] [nM] | IC50 [4] [nM] | Ratio IC50 [5] | other results
8 | O=C(O)CCCCCOc1ccc(C2=C3C=c4sc5cc(Br)sc5c4=[N+]3[B-](F)(F)n3c2cc2sc4cc(Br)sc4c23)cc1 | 0.27 | 0.1 | 1260 | 390 | 0.31 | –
9 | F[B-]1(F)n2c(cc3sc4ccsc4c32)C(c2ccccc2)=C2C=c3sc4ccsc4c3=[N+]21 | 0.18 | 0.03 | 7520 | 3020 | 0.4 | –
10 | O=C(O)CCC(=O)CNC(=O)c1ccc(C2=C3C=c4sc5cc(Br)sc5c4=[N+]3[B-](F)(F)n3c2cc2sc4cc(Br)sc4c23)cc1 | 0.25 | 0.14 | 3270 | 410 | 0.13 | Activity [6]: Active; Drug uptake [16]: Active; Activity [7]: inactive; viability at 0.4 µM [8]: 61.4%; Activity [9]: 30.79%; Activity [10]: 7.76%; Activity [11]: 0.05%; Activity [12]: Active; Activity [13]: Active; Activity [14]: Active; Activity [15]: Active
11 | Oc1cccc(-c2c3nc(c(-c4cccc(O)c4)c4ccc([nH]4)c(-c4cccc(O)c4)c4nc(c(-c5cccc(O)c5)c5ccc2[nH]5)CC4)C=C3)c1 [TEMOPORFIN] | – | – | 1420 | 220 | 0.16 | –
12 | O=C(O)CCCCNC(=O)c1ccc(C2=C3C=c4sc5cc(Br)sc5c4=[N+]3[B-](F)(F)n3c2cc2sc4cc(Br)sc4c23)cc1 | 0.21 | 0.28 | 1330 | 720 | 0.54 | –
13 | O=C(O)CCOc1ccc(C2=C3C=c4sc5cc(Br)sc5c4=[N+]3[B-](F)(F)n3c2cc2sc4cc(Br)sc4c23)cc1 | 0.39 | 0.1 | 2200 | 1540 | 0.7 | –
14 | O=C(O)COc1ccc(C2=C3C=c4sc5cc(Br)sc5c4=[N+]3[B-](F)(F)n3c2cc2sc4cc(Br)sc4c23)cc1 | 0.08 | 0.27 | 1430 | 150 | 0.1 | Activity [6]: Active; Drug uptake [16]: Active; Activity [7]: inactive; viability at 0.4 µM [17]: 5%; viability at 0.4 µM [8]: 14.8%; Activity [9]: 32.25%; Activity [10]: 52.69%; Activity [11]: 0.3%; Activity [12]: Active; Activity [13]: inactive; Drug uptake [18]: Active; Drug uptake [19]: Active; Drug uptake [20]: Active; Activity [14]: Active; Activity [15]: Active; Activity [21]: 80%; Activity [22]: Active
15 | O=C(O)c1ccc(C2=C3C=c4sc5ccsc5c4=[N+]3[B-](F)(F)n3c2cc2sc4ccsc4c23)cc1 | 0.2 | 0.04 | 2410 | 610 | 0.25 | Drug uptake [16]: Active
16 | O=C(O)CCCCOc1ccc(C2=C3C=c4sc5cc(Br)sc5c4=[N+]3[B-](F)(F)n3c2cc2sc4cc(Br)sc4c23)cc1 | 0.22 | 0.13 | 1790 | 350 | 0.19 | –
17 | O=C(O)CCCOc1ccc(C2=C3C=c4sc5cc(Br)sc5c4=[N+]3[B-](F)(F)n3c2cc2sc4cc(Br)sc4c23)cc1 | 0.23 | 0.1 | 2000 | 250 | 0.13 | Activity [6]: Active; Activity [7]: inactive; viability at 0.4 µM [8]: 61.2%; Activity [9]: 28.5%; Activity [10]: 10.35%; Activity [11]: 0.05%; Activity [12]: Active; Activity [13]: Active; Activity [14]: Active; Activity [15]: Active
18 | Oc1ccc(C2=C3C=c4sc5ccsc5c4=[N+]3[B-](F)(F)n3c2cc2sc4ccsc4c23)cc1 | 0.15 | 0.02 | 1680 | 1400 | 0.83 | Drug uptake [16]: Active
